Data on 15 molecules can be found in patent US7928140B2, “Benzothiazole PI3 kinase modulators for cancer treatment” (Amgen Inc., priority 2007, dated 2011).

One assay deals with T1, PI3K β (Homo sapiens, UniProt P42338).
T1 construct: Full length p110 subunits of PI3K α, β and δ, N-terminally labeled with polyHis tag; polyHis (N); made in house; host or cells: Sf9 insect cells (baculovirus)
Put plainly: In vitro PI3 kinase enzyme assay (beta), ATP loss, bioluminescence.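 Note: purified p110β/p85 heterodimer with PtdIns(4,5)P2 as acceptor, incubated at room temperature, leftover ATP read by luminescence, inhibition scaled to compound-free wells with and without enzyme.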 In kind it is biochemical. The settings on record: read-out: PI3Kβ ATP loss IC50.

For a further assay, the target named is T2, PI3K α (Homo sapiens, UniProt P42336).
T2 construct: Full length p110 subunits of PI3K α, β and δ, N-terminally labeled with polyHis tag; polyHis (N); made in house; host or cells: Sf9 insect cells (baculovirus)
T2 sequence (P42336 whole entry, species assumed): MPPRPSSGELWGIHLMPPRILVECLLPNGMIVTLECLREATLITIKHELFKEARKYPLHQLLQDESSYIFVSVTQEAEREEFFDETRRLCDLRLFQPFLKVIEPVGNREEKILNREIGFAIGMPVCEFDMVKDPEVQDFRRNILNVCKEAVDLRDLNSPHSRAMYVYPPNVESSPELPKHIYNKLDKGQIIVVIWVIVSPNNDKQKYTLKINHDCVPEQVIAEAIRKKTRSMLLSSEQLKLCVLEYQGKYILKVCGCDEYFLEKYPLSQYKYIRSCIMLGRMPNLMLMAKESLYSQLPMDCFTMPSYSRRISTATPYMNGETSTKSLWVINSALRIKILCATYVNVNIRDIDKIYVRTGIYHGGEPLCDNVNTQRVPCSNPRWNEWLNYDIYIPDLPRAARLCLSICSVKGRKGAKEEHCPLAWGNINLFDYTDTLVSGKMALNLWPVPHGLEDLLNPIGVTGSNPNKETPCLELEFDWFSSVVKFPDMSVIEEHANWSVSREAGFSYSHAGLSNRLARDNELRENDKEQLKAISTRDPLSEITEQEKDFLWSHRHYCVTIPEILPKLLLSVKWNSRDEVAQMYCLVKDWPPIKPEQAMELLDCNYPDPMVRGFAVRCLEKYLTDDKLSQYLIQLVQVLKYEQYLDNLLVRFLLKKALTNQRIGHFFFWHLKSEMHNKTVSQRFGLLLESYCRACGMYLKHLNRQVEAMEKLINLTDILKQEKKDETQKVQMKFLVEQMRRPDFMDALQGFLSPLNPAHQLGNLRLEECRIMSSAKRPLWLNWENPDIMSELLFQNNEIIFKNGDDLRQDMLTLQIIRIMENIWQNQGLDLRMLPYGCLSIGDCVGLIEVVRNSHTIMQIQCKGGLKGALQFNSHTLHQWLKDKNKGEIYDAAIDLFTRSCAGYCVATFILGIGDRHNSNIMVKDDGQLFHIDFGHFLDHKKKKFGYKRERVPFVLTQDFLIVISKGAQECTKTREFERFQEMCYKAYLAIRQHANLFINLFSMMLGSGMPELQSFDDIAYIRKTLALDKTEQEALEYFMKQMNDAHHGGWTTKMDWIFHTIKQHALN
T2 sequence (P27986 whole entry partner, species assumed): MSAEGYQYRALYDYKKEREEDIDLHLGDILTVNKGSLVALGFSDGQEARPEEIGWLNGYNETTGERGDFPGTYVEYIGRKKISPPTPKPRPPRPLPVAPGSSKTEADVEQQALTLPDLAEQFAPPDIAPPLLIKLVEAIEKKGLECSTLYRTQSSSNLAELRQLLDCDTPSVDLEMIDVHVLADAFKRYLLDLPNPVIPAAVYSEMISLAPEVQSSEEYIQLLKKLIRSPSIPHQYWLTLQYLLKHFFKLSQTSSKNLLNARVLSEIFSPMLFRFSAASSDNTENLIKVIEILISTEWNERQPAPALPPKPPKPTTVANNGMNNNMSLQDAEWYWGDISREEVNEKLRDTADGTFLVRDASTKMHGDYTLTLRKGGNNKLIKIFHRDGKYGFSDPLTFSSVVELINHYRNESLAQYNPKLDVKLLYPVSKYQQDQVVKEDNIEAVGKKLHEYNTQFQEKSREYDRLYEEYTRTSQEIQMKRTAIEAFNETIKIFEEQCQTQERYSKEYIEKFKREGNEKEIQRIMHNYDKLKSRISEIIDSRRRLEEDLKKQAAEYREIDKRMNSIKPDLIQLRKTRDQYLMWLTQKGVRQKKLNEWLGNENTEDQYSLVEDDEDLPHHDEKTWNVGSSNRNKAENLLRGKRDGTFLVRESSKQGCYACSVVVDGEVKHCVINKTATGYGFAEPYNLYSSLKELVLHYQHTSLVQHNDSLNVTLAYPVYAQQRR
As to the kind of experiment: In vitro PI3 kinase enzyme assay (alpha), ATP loss, bioluminescence.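 Note: purified p110α/p85 heterodimer acting on PtdIns(4,5)P2 at room temperature, remaining ATP read by luminescence, inhibition scaled between compound-free wells with and without enzyme.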 The assay is classed as biochemical. The settings on record: read-out: PI3Kα ATP loss IC50.

SMILES strings stand for the structures.

T1 sequence (P42338 whole entry): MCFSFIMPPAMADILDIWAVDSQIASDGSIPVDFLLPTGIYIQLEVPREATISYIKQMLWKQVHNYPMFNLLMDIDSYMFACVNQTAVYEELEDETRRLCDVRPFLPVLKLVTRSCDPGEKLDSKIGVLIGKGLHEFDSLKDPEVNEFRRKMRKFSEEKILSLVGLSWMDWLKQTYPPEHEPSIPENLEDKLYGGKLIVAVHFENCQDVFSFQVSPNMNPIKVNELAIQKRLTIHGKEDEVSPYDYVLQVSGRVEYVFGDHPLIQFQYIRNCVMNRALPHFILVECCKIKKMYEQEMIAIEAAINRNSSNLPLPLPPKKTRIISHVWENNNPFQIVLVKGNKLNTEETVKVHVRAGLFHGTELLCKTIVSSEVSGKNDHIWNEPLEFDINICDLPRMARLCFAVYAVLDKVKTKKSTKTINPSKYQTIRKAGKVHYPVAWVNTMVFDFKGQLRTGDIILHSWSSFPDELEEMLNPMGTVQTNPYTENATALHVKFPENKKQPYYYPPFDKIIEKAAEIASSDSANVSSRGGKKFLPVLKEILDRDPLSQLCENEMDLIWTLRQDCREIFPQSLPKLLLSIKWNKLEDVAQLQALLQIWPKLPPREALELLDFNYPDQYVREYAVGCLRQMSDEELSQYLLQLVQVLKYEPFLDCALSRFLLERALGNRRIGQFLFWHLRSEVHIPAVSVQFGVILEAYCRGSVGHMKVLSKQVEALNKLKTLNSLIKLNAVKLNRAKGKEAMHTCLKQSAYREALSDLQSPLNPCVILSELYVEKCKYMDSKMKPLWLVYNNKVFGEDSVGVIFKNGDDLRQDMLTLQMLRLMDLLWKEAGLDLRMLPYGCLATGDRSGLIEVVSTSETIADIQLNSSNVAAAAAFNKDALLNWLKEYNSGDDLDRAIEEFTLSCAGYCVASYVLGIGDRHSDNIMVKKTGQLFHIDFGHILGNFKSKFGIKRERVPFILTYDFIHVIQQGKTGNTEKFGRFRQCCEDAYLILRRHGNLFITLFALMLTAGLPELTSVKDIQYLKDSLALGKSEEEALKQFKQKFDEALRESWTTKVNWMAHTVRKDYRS
T1 sequence (P27986 whole entry partner): as the sequence (P27986 whole entry partner, species assumed) above
Method for PI3K β: Full length p110 subunits of PI3K α, β and δ, N-terminally labeled with polyHis tag, were co-expressed with p85 in baculovirus expression vectors in sf9 insect cells. P110/p85 heterodimers were purified by sequential Ni-NTA, Q-HP, and Superdex-100 chromatography. Purified α, β and δ isozymes were stored at −20° C. in 20 mM Tris, pH 8, 0.2M NaCl, 50% glycerol, 5 mM DTT, 2 mM Na cholate.
PI3K enzyme assays (alpha, beta, delta and gamma) were performed in 25 mL with the above final concentrations of components in white polypropylene plates (Costar catalogue #3355). Phosphatidyl inositol phosphoacceptor, PtdIns(4,5)P2 (eg. P4508) was obtained from Echelon Biosciences. The ATPase activity of the alpha and gamma isozymes was not greatly stimulated by PtdIns(4,5)P2 under these conditions and was therefore omitted from the assay of these isozymes. Test compounds were dissolved in DMSO and diluted with three-fold serial dilutions. The compound in DMSO (1 μL) was added per test well, and the inhibition relative to reactions containing no compound, with and without enzyme was determined. After assay incubation at RT, the reaction was stopped and residual ATP determined by addition of an equal volume of a commercial ATP bioluminescence kit (Perkin Elmer EasyLite) according to the manufacturer's instructions, and detected using an Analyst GT luminometer.

The term IC50 denotes the concentration at which inhibition is half-maximal. Turning to `CC(=O)Nc1nc2ccc(-c3ccnc(Sc4ccccc4C(C)(C)C)n3)cc2s1` [Example 30, N-(6-(2-((2-tert-butylphenyl)sulfanyl)-4-pyrimidinyl)-1,3-benzothiazol-2-yl)acetamide], the figures for the IC50 on PI3K β and at PI3K α were 1.42 µM and 0.908 µM, respectively.

`CC(=O)Nc1nc2ccc(-c3ccnc(N(C)S(=O)(=O)c4cccc5cnccc45)n3)cc2s1` [Example 208, N-(6-(2-(N-methylisoquinoline-5-sulfonamido)pyrimidin-4-yl)benzo[d]thiazol-2-yl)acetamide]: the IC50 on PI3K β came to 0.743 µM; on PI3K α, 0.462 µM.

With `CC(=O)Nc1nc2ccc(-c3ccnc(Sc4ccccc4C(C)C)n3)cc2s1` [Example 154, N-(6-(2-((2-(1-methylethyl)phenyl)sulfanyl)-4-pyrimidinyl)-1,3-benzothiazol-2-yl)acetamide], the IC50 at PI3K β amounted to 1.21 µM; at PI3K α it was 0.376 µM.

As for `CC(=O)Nc1nc2ccc(-c3ccnc(Sc4cccc(Cl)c4)n3)cc2s1` [Example 140, N-(6-(2-((3-chlorophenyl)sulfanyl)-4-pyrimidinyl)-1,3-benzothiazol-2-yl)acetamide], the values for the half-inhibitory concentration (IC50) at PI3K β and at PI3K α were 0.134 µM and 0.0836 µM, respectively.

As for `CC(=O)Nc1ccc(S(=O)(=O)Nc2nccc(-c3ccc4nc(NC(C)=O)sc4c3)n2)cc1` [Example 86, N-(4-((4-(2-(acetylamino)-1,3-benzothiazol-6-yl)-2-pyrimidinyl)sulfamoyl)phenyl)acetamide], the values for the IC50 on PI3K β and at PI3K α were 10.2 µM and 0.319 µM, respectively.

Consider `CC(=O)Nc1nc2ccc(-c3cncc(OCCN4CCCCC4)c3)cc2s1` [Example 233, N-(6-(5-(2-(piperidin-1-yl)ethoxy)pyridin-3-yl)benzo[d]thiazol-2-yl)acetamide], for which the IC50 is 11.9 µM on PI3K β and 4.14 µM at PI3K α.

Turning to `CC(=O)Nc1nc2ccc(-c3cnccc3OC(F)F)cc2s1` [Example 248, N-(6-(4-(difluoromethoxy)pyridin-3-yl)benzo[d]thiazol-2-yl)acetamide], the IC50 was found to be 17.1 µM on PI3K β and 3.84 µM at PI3K α.

Take `COc1cc(C)c(-c2ccc3nc(NC(C)=O)sc3c2)cn1` [Example 244, N-(6-(6-methoxy-4-methylpyridin-3-yl)benzo[d]thiazol-2-yl)acetamide]: the values for the IC50 on PI3K β and at PI3K α were 2.99 µM and 0.688 µM, respectively.

Consider `CC(=O)Nc1nc2ccc(-c3ccnc(OCCN(C)C)n3)cc2s1` [Example 9], for which the IC50 on PI3K β was over 40 µM; on PI3K α, 6.07 µM.

For the molecule `CC(=O)Nc1nc2ccc(-c3cncc(OCCN4CCC(F)C4=O)c3)cc2s1` (stereo not drawn) [Example 255], the IC50 on PI3K β was over 40 µM; on PI3K α it was 0.793 µM.

`Oc1cc(-c2ccc3ncsc3c2)cnc1Cl` [Example 334, 5-(1,3-benzothiazol-6-yl)-2-chloro-3-pyridinol]: the IC50 at PI3K β was determined as 1.35 µM; at PI3K α it was 0.116 µM.

Turning to `CC(=O)Nc1nc2ccc(-c3ccnc(N4CCOCC4)n3)cc2s1` [Example 160, N-(6-(2-(4-morpholinyl)-4-pyrimidinyl)-1,3-benzothiazol-2-yl)acetamide], the IC50 on PI3K β stood at 18.9 µM; on PI3K α, 2.74 µM.

On to `CC(=O)Nc1nc2ccc(-c3ccnc(N(C)S(=O)(=O)c4ccsc4)n3)cc2s1` [Example 209, N-(6-(2-(N-methylthiophene-3-sulfonamido)pyrimidin-4-yl)benzo[d]thiazol-2-yl)acetamide], for which the 50% inhibitory concentration (IC50) at PI3K β was 0.855 µM; on PI3K α it was 0.185 µM.

In the case of `CC(=O)Nc1nc2ccc(-c3ccnc(NN4CCCCC4)n3)cc2s1` [Example 265, N-(6-(2-(piperidin-1-ylamino)pyrimidin-4-yl)benzo[d]thiazol-2-yl)acetamide], the IC50 came out at 40.8 µM on PI3K β and 2.6 µM on PI3K α.

Turning to `CN(C)c1cc(-c2ccc3nc(NC(=O)NCCN4CCOCC4)sc3c2)cnc1Cl` [Example 273, 1-(6-(6-chloro-5-(dimethylamino)pyridin-3-yl)benzo[d]thiazol-2-yl)-3-(2-morpholinoethyl)urea], the IC50 on PI3K β is 2.07 µM; on PI3K α, 0.115 µM.
